The values that follow come from the SangsterLogP compilation.

A short description of data set [1]: method code SF-GLC, from DOI: 10.1021/ac00241a023.
Data set [2] is described as follows: method code SF-RC, from DOI: 10.1002/jps.2600800111, PMID: 2013848.
Data set [3] is described as follows: method code SF-GLC, from DOI: 10.1021/es00131a005.
Data set [4] in a line: method code SF-AS, from Kosanovic, D.; Dumanovic, D.; Jovanovic, J. (1988). Solubility in octanol And the octanol-water partition coefficients of some 4(5)- and 5-nitroimidazoles. 53(10)559-563.
Data set [5] in a line: method code SF, from DOI: 10.1016/0005-2744(69)90103-x, PMID: 4387594.
Data set [6] is described as follows: method code SF-AS, from DOI: 10.1016/0223-5234(93)90135-2. The note with it: pH 12.0.
Data set [7] is described as follows: method code SF-HPLC, from DOI: 10.1016/0378-5173(83)90028-5.
A short description of data set [8]: method code SF-RC, from DOI: 10.1016/s0969-8051(01)00233-5, PMID: 11518650.
The nature of data set [9]: method code SF-GLC, from DOI: 10.1002/etc.5620080910.
Data set [10] can be described thus: method code SF, from DOI: 10.2307/3575246, PMID: 7367588.
Data set [11] can be described thus: method code SF-GLC, from Boikov, Yu.; Shibaev, V.; Gaidamaka, V.; V'yunov, K. (1989). Study of correlation between extraction characteristics of glycidyl ethers and theri structure. 62(1)177-179.
Data set [12] can be described thus: method code SF-AS, from PMID: 2551304. The note with it: pH 7.4.
Assay in data set [13]: not given
The source holds these as a separate data set.

Assay in data set [14]: not given
The source holds these as a separate data set.

Data set [15] is described as follows: method code SF-AS, from PMID: 2160644.
Data set [16] can be described thus: method code SF, from Ganellin, C. R., & Durant, G. J. (1981). Histamine H2-receptor agonists and antagonists. Burgers Medicinal Chemistry, 3, 487-552. As to conditions: pH 11.8.
Assay in data set [17]: not given
This is another data set of the same source.

Data set [18] is described as follows: method code SF-HPLC, from DOI: 10.1016/s0021-9673(01)88640-4.
A short description of data set [19]: method code SF-AS, from DOI: 10.1021/jm0495273.s001, PMID: 15974600. The note with it: pH 7.4.
Data set [20] can be described thus: method code SF-AS, from Ganga, L. X. J. S., & Zun-Yaob, L. H. W. (2009). Determination of lgKow and QSPR Study on Some Fluorobenzene Derivatives. Jiegou Huaxue, 28(10).
The nature of data set [21]: method code SF-CR+AS, from Korenman, I. (1982). The influence of substituents on the partition of phenols between water and organic solvents. Russ. J. Phys. Chem., 56(3)458-460.
Data set [22] can be described thus: method code SF, from Korenman, I. M.; Klyukvina, T. D. (1972). Extraction of methylfurfural from aqueous solutions. Zh. Prikl. Khim., 45(11)2697-2699.
Assay in data set [23]: not given
The source holds these as a separate data set.

Data set [24] can be described thus: method code SF-AS, from DOI: 10.1016/0378-5173(93)90388-v.
Assay in data set [25]: not given
The source holds these as a separate data set.

Data set [26] in a line: method code SF-TN, from DOI: 10.2116/analsci.13.897. The note with it: pH 2.0.
Assay in data set [27]: not given
This is another data set of the same source.

Assay in data set [28]: not given
The source holds these as a separate data set.

A short description of data set [29]: method code SF-GLC, from DOI: 10.1002/jps.2600620103, PMID: 4734195.
Data set [30] in a line: method code SF, from DOI: 10.1016/j.jiec.2010.03.003.
The nature of data set [31]: method code SF-TN, from DOI: 10.1085/jgp.71.1.93, PMID: 621494.
Data set [32] is described as follows: method code SF-AS, from DOI: 10.1002/etc.5620181211.
Assay in data set [33]: not given
This is another data set of the same source.

Assay in data set [34]: not given
This is another data set of the same source.

Assay in data set [35]: not given
This is another data set of the same source.

Data set [36] in a line: method code SF, from Brown, J.; Yu, N.; Cory, M.; Bicknell, R.; Taylor, D. (1978). In vivo evaluation of the radiosensitizing and cytotoxic properties of newly synthesized electron-affinic drugs. 3, 206-211.
Data set [37] in a line: method code SF-HPLC, from DOI: 10.1080/02772248909357333.
Data set [38] can be described thus: method code SF-HPLC, from DOI: 10.1021/je049947x.
A short description of data set [39]: from KURIHARA, Norio.; Fujita, Toshio. (1983). Composition of Partition Coefficients of Polychlorinated Hydrocarbons (Commemoration Issue Dedicated to Professor Yuzo Inouye on the Occasion of his ….
Data set [40] in a line: method code SF-AS, from DOI: 10.1016/0891-5849(94)00112-w, PMID: 7744299. The note with it: pH 7.5.
Data set [41] in a line: method code SF-AS, from DOI: 10.1016/0039-9140(93)80165-n, PMID: 18965747. The note with it: pH 2.0.
The nature of data set [42]: method code SF-AS, from DOI: 10.1016/0003-9861(82)90097-2, PMID: 6284047. The note with it: pH 7.4.
Data set [43] is described as follows: method code SF-AS, from DOI: 10.1016/0378-5173(80)90061-7.
Data set [44] is described as follows: method code SF, from DOI: 10.1021/bk-1995-0606.ch003.
The nature of data set [45]: method code SF-TN, from Korenman, I M.; Gurevich, N.; Kulagina, G. (1973). Extraction of certain n-alkylamines from aqueous solutions. Zh. Prikl. Khim., 46(3)726-728.
Assay in data set [46]: not given
This is another data set of the same source.

Assay in data set [47]: not given
This is another data set of the same source.

Assay in data set [48]: not given
The source holds these as a separate data set.

The nature of data set [49]: method code SF, from DOI: 10.1016/j.tca.2016.07.020. As to conditions: pH 7.4.
Assay in data set [50]: not given
The source holds these as a separate data set.

Data set [51] can be described thus: method code G-HPLC, from DOI: 10.1016/s0021-9673(01)94303-1.

With `Clc1cccc(Cl)c1Cl`, in data set [1], the logP is 4.05.

For `Nc1ccc(S(=O)(=O)O)cc1`, in data set [2], the logP is -2.16.

In data set [3], `Clc1ccc(Cl)c(Cl)c1Cl` displayed a logP of 4.6.

Regarding `CC(C)c1nc([N+](=O)[O-])c[nH]1`, in data set [4], the logP amounted to 0.9.

`Nc1ccccc1F` showed a logP in [5] of 1.26.

Broadly, the logD is the decadic logarithm of the distribution of all forms, ionised or not, between an organic phase and buffer at a given pH. Higher therefore signals a more lipophilic compound. The compound `NCCc1nccs1` displayed a logD in data set [6] of 0.16.

Take `O=[N+]([O-])O[C@@H]1CO[C@H]2[C@@H]1OC[C@@H]2O`: the logP in [7] is -0.15.

`COC(=O)c1ccco1` had a logP of 1.08.

In data set [8], `CN(C)CCCF` returned a logP of 1.27.

As for `O=[N+]([O-])c1ccc(Cl)cc1Cl`, the logP in data set [9] was 3.05.

As for `Cn1c(C(O)CO)cnc1[N+](=O)[O-]` (configuration not stated), in data set [10], the logP is -0.89.

Turning to `CCOCC1CO1` (configuration not stated), the logP in data set [11] was determined as 0.27.

`Nc1ccncc1F` had a logD in data set [12] of 0.63.

In data set [13], `Nc1cccc(O)c1` came in with a logP of 0.28.

In [14], `Nc1cc(N=O)ccc1O` had a logP of 0.03.

For `O=C(O)c1cc(=O)[nH]c(=O)[nH]1`, the logP in data set [15] was -0.83.

`NCCc1c[nH]cn1`: the log distribution coefficient (logD) in data set [16] is -0.7.

As to `Nc1cc(Cl)c(S(N)(=O)=O)cc1S(N)(=O)=O`, in data set [17], the logP was -0.56.

Take `N#CN=[N+]([O-])c1cnccn1`: in [18], the logP worked out at 0.1.

For `Nc1nc(S)c2[nH]cnc2n1`, the logD in data set [19] is -0.16.

In data set [20], `Fc1ccc(F)cc1` gave a logP of 2.26.

Take `Nc1cc([N+](=O)[O-])cc(Cl)c1O`: the logP in [21] is 1.53.

With `Cc1ccc(C=O)o1`, the logP in data set [22] came out at 0.67.

As to `Cc1nccn1C`, the logP in data set [23] is -0.04.

In the case of `CC1CCC(=O)N1` (configuration not stated), in data set [24], the logP is -0.1.

`Oc1ccc(O)cc1`: the logP in [25] is 0.61.

Turning to `O=C(O)C1CCCC1`, the logD in data set [26] came out at 1.52.

Turning to `Oc1c(Br)c(Br)c(Br)c(Br)c1Br`, in data set [27], the logP turned out to be 5.3.

For `CON=C(C#N)C(=O)NCC(=O)O`, in data set [28], the logP was -0.58.

As to `CC(C)C(C)O` (configuration not stated), the logP in data set [29] came out at 1.28.

For `COC(C)(C)C`, the logP in data set [30] came out at 1.41.

As for `CCCCC(O)C(=O)O` (configuration not stated), the logP in [31] stood at 0.81.

`Cc1cccnc1N` returned a logP in data set [32] of 0.01.

In data set [33], `Oc1ccc(O)c(Cl)c1` yielded a logP of 1.4.

As to `CCOCCO`, the logP in data set [34] is -0.28.

In data set [35], `COCC(C)OC(C)=O` (configuration not stated) showed a logP of 0.56.

Regarding `CC(O)Cn1ccnc1[N+](=O)[O-]` (configuration not stated), the logP in [36] was -0.16.

`COc1nn(CSP(=S)(OC)OC)c(=O)s1` gave a logP in data set [37] of 2.22.

For `CC(C)Nc1nc(N)nc(Cl)n1`, the logP in data set [38] was 1.49.

`ClC1C=CCC(Cl)C1Cl` (configuration not stated) displayed a logP in data set [39] of 2.84.

`O=Nc1ccccc1` returned a logD in data set [40] of 1.86.

As to `CC(C)(C)C(=O)O`, the logD in data set [41] was 1.42.

As to `CC1(C)CCC=[N+]1[O-]`, the logD in data set [42] was -1.03.

Take `CCOC(=O)CCCO`: the logP in data set [43] was determined as 0.43.

Take `CCc1ccc[nH]1`: the logP in data set [44] came out at 1.59.

In [45], `CCCCN` came in with a logP of 0.74.

Take `Clc1cccc(C(Cl)(Cl)Cl)n1`: the logP in data set [46] came to 3.41.

`O=[N+]([O-])c1cc(Cl)ccc1Cl` gave a logP in data set [47] of 3.09.

Consider `CC(CCl)OC(C)CCl` (configuration not stated), for which the logP in data set [48] turned out to be 2.48.

`NC(=S)c1ccncc1` yielded a logD in [49] of 0.61.

Take `CNC(=O)N(C)c1nnc(C(F)(F)F)s1`: the logP in [50] was 1.46.

On to `CCCCBr`, for which the logP in data set [51] amounted to 2.75.
